From patent US20140045856A1, “4-Methyl-2,3,5,9,9b-pentaaza-cyclopenta[a]naphthalenes” (BOEHRINGER INGELHEIM INTERNATIONAL GMBH, priority 2012, published 2014)

What was measured:
PDE2A = PDE2A (Homo sapiens, UniProt O00408); test: PDE 2A assay with fluorescent substrate (IMAP, fluorescence polarization); type: biochemical; settings: read-out: PDE2 IC50
PDE10 = PDE10 (Homo sapiens, UniProt Q9Y233); test: PDE10 assay with fluorescent substrate (IMAP, fluorescence polarization); type: biochemical
PDE10, sequence (Q9Y233 whole entry, species assumed): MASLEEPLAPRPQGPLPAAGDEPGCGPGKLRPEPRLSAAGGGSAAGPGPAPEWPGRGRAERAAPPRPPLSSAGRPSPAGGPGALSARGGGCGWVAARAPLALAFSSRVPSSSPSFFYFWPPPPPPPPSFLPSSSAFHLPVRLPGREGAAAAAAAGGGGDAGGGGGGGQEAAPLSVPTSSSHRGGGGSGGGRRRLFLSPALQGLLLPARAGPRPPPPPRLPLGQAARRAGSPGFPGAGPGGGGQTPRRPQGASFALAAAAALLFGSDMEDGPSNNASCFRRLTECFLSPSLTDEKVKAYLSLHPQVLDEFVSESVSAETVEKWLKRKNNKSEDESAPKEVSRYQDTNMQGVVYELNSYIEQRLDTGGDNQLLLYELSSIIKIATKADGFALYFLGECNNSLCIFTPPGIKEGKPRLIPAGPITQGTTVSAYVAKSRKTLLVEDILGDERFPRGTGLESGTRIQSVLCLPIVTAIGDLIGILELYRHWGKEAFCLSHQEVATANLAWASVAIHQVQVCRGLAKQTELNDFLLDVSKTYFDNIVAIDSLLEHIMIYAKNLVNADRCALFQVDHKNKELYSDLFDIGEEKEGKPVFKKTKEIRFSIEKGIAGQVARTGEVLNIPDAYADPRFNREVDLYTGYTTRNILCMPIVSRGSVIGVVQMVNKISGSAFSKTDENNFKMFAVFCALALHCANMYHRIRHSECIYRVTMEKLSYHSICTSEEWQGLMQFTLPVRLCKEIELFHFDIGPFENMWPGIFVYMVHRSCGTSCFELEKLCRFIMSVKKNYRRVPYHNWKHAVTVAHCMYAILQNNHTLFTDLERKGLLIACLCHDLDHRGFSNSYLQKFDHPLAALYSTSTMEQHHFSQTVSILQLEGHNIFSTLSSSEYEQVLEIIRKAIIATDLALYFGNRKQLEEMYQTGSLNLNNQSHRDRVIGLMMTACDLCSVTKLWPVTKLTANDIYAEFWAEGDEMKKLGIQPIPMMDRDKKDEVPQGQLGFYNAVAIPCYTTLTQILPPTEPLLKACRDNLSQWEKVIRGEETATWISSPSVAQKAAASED

PDE2A, sequence (O00408 whole entry, species assumed): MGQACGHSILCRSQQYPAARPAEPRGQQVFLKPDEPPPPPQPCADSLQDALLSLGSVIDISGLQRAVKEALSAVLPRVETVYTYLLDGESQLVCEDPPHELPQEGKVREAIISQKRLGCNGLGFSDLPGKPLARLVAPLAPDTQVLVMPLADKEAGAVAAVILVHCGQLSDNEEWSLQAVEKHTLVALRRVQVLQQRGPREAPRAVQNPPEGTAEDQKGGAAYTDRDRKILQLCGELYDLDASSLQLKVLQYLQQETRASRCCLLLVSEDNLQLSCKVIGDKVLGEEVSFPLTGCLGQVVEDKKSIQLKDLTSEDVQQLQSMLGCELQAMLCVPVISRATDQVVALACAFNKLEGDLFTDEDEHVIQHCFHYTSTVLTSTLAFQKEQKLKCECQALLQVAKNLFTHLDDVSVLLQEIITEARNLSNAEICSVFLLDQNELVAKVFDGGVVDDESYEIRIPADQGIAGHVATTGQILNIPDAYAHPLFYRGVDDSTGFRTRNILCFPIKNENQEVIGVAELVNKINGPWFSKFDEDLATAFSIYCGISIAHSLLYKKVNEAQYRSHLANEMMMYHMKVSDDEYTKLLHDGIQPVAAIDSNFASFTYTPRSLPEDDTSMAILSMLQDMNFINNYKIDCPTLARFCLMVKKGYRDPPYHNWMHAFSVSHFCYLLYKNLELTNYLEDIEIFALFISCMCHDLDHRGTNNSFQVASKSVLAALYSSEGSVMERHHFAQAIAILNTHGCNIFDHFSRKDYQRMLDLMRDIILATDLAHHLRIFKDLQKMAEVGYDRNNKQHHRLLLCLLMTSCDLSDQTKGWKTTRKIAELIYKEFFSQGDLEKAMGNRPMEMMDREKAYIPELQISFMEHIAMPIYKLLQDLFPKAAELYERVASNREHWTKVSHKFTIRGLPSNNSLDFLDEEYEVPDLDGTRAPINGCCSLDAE

Row | IC50 (PDE2A) [µM] | IC50 (PDE10) [µM] | Structure (SMILES)
1 | 0.622 | 7980 | Cc1nc2ccc(C(F)(F)F)nc2n2c(-c3cc(C(C)(C)O)ccc3F)nnc12 [Example 103c]
2 | – | 1.54 | Cc1nc2ccc(C3CC3)nc2n2c(-c3cc(C4(O)CCOCC4O)ccc3F)nnc12 (racemic) [Example 105]
3 | 0.109 | 4.51 | Cc1nc2cccnc2n2c(-c3cc(OCC4(O)CC4)ccc3Cl)nnc12 [Example 43a]
4 | 0.429 | 1.41 | Cc1nc2ccc(C(F)(F)F)nc2n2c(-c3cc(OC4COCC4O)ccc3F)nnc12 (single isomer, unassigned) [Example 106a]
5 | 0.003 | 0.01 | Cc1ccc(O)cc1-c1nnc2c(C)nc3ccc(C4CC4)nc3n12 [Example 6]
6 | – | 7.46 | Cc1nc2ccc(C(F)(F)F)nc2n2c(-c3cc(C4(O)CCOC4)ccc3F)nnc12 (stereo not shown) [Example 96c]
7 | 0.004 | 0.534 | CCCC(O)c1ccc(Cl)c(-c2nnc3c(C)nc4ccc(C)nc4n23)c1 (stereo not shown) [Example 61]
8 | 0.003 | 0.016 | Cc1ccc(O)cc1-c1nnc2c(C)nc3ccc(C(C)C)nc3n12 [Example 7]
9 | 0.009 | 1.36 | Cc1nc2ccc(C3CC3)nc2n2c(-c3cc(OC4CCOCC4O)ccc3Cl)nnc12 (single isomer, unassigned) [Example 109c]
10 | 0.005 | 1.37 | Cc1nc2ccc(C3CC3)nc2n2c(-c3cc(C4(O)CCOCC4)ccc3F)nnc12 [Example 95]
11 | 0.388 | > 10 | Cc1nc2ccc(C(F)(F)F)nc2n2c(-c3cc(OC4COCCC4O)ccc3F)nnc12 (single isomer, unassigned) [Example 110b]
12 | 0.011 | – | Cc1nc2ccc(C3CC3)nc2n2c(-c3cc(OC4COCCC4O)ccc3F)nnc12 (single isomer, unassigned) [Example 108a]
13 | – | 0.891 | Cc1nc2ccc(C3CC3)nc2n2c(-c3cc(C4(O)CCOC4)ccc3Cl)nnc12 (single isomer, unassigned) [Example 97b]
14 | – | 1.13 | Cc1nc2ccc(C3CC3)nc2n2c(-c3cc(C(C)(C)CO)ccc3F)nnc12 [Example 101]
15 | – | 0.63 | Cc1nc2ccc(C3CC3)nc2n2c(-c3cc(OC4CCOCC4O)ccc3F)nnc12 (single isomer, unassigned) [Example 108d]
16 | 0.467 | – | Cc1nc2ccc(C(F)(F)F)nc2n2c(-c3cc(OC4CCOCC4O)ccc3F)nnc12 (single isomer, unassigned) [Example 110d]
17 | 0.004 | – | Cc1nc2ccc(C3CC3)nc2n2c(-c3cc(C4(O)CCOC4)ccc3Cl)nnc12 (racemic) [Example 97]
18 | – | 0.262 | Cc1nc2ccc(C3CC3)nc2n2c(-c3cc(OC4CCOCC4O)ccc3F)nnc12 (single isomer, unassigned) [Example 108c]
19 | – | 5.94 | Cc1nc2ccc(C3CC3)nc2n2c(-c3cc(C4(O)CCOC4)ccc3Cl)nnc12 (single isomer, unassigned) [Example 97a]
20 | 0.043 | – | Cc1nc2ccc(C(F)(F)F)nc2n2c(-c3cc(C4(O)CCOCC4)ccc3Cl)nnc12 [Example 96]
21 | 0.199 | – | Cc1nc2ccc(C(F)(F)F)nc2n2c(-c3cc(C4(O)CCOCC4)ccc3F)nnc12 [Example 96a]
22 | 0.087 | – | Cc1ccc(C2(O)CCOCC2)cc1-c1nnc2c(C)nc3ccc(C(F)(F)F)nc3n12 [Example 96b]
23 | 0.144 | – | Cc1ccc(C(C)(C)O)cc1-c1nnc2c(C)nc3cc(C(C)C)cnc3n12 [Example 79]
24 | – | 0.005 | Cc1nc2ccc(C3CC3)nc2n2c(-c3cc(O)ccc3F)nnc12 [Example 5]
25 | – | 0.061 | Cc1nc2ccc(C3CC3)nc2n2c(-c3cc(OC4COCC4O)ccc3Cl)nnc12 (racemic) [Example 56]
26 | – | 0.285 | Cc1ccc2nc(C)c3nnc(-c4cc(CO)ccc4Cl)n3c2n1 [Example 60]
27 | – | 3.54 | Cc1nc2cccnc2n2c(-c3cc(CCC(C)(C)O)ccc3F)nnc12 [Example 65]
28 | – | 1.4 | Cc1nc2ccc(C(C)C)nc2n2c(-c3cc(C(C)(C)O)ccc3Cl)nnc12 [Example 77]
